The values that follow come from ChEMBL document CHEMBL4316591, “Optimization of Pan-Pim Kinase Activity and Oral Bioavailability Leading to Diaminopyrazole (GDC-0339) for the Treatment of Multiple Myeloma” (J Med Chem, 2019).

≈ marks a conversion by molar mass, not a printed value.

Series [1] in a line: Half life in cynomolgus monkey at 0.5 mg/kg by LC-MS/MS analysis. Conditions: in vivo.
Series [2] in a line: Volume of distribution at steady state in Sprague-Dawley rat at 1 mg/kg, iv by LC-MS/MS analysis. It is filed as ADME, organism-based. Conditions: in vivo, read-out: Vdss.
The nature of series [3]: Oral bioavailability in cynomolgus monkey at 1 mg/kg by LC-MS/MS analysis. The note with it: in vivo. It is filed as ADME, organism-based, Macaca fascicularis.
A short description of series [4]: in vivo. The note with it: Sprague-Dawley, rat, po, 5 mg/kg.
The nature of series [5]: Oral bioavailability in mouse at 100 mg/kg by LC-MS/MS analysis. In kind it is ADME, organism-based. The note with it: in vivo.
Series [6] can be described thus: Volume of distribution at steady state in mouse at 1 mg/kg, iv by LC-MS/MS analysis. The note with it: in vivo, read-out: Vdss. In kind it is ADME, organism-based.
Series [7] can be described thus: in vivo. The note with it: Sprague-Dawley, rat, iv, 1 mg/kg.
Series [8] is described as follows: Total clearance in mouse at 1 mg/kg, iv by LC-MS/MS analysis. The note with it: in vivo. It is filed as ADME, organism-based.
The nature of series [9]: Volume of distribution at steady state in cynomolgus monkey at 0.5 mg/kg by LC-MS/MS analysis. The note with it: in vivo, read-out: Vdss.
A short description of series [10]: Oral bioavailability in mouse at 5 mg/kg by LC-MS/MS analysis by LC-MS/MS analysis. The note with it: in vivo. In kind it is ADME, organism-based.
The nature of series [11]: Half life in mouse at 1 mg/kg, iv by LC-MS/MS analysis. It is filed as ADME, organism-based. Conditions: in vivo.
Another series is described as follows: physchem. Conditions: buffer, pH 6.5.
Series [12] can be described thus: Oral bioavailability in Sprague-Dawley rat at 100 mg/kg by LC-MS/MS analysis. In kind it is ADME, organism-based. Conditions: in vivo.
Series [13] can be described thus: Total clearance in cynomolgus monkey at 0.5 mg/kg, iv by LC-MS/MS analysis. It is filed as ADME, organism-based, Macaca fascicularis. The note with it: in vivo.
Series [14] in a line: Half life in Sprague-Dawley rat at 1 mg/kg, iv by LC-MS/MS analysis. In kind it is ADME, organism-based. The note with it: in vivo.
Series [15] is described as follows: Oral bioavailability in cynomolgus monkey at 100 mg/kg by LC-MS/MS analysis. In kind it is ADME, organism-based, Macaca fascicularis. Conditions: in vivo.

One may read the half-life as how long it takes for the measured level to halve. In general, bioavailability refers to the share of a dose that reaches the circulation, judged against a reference dose that is usually intravenous. The clearance is a measure of how efficiently the substance is removed, as volume per time. As usually defined, the solubility (thermodynamic) is solubility found after equilibrating the solid with the medium. As to `Cn1ncc(NC(=O)c2nc(-c3c(F)cccc3F)sc2N)c1N1CC[C@@H](N)[C@H](F)CC1`, the half-life in series [1] was 1.8 h; in series [11], 0.9 h; in [14], 1.8 h. The Vd came to 0.9 L/kg in [2], 6.8 L/kg in series [6] and 5 L/kg in [9]. The bioavailability was determined as 35% in series [3]; 33% in “in vivo [4]”; 34% in series [5]; 11% in series [10]; 28% in [12]; 60% in series [15]. Also, the clearance in the series “in vivo [7]” was found to be 8 mL/min/kg; in series [8], 135 mL/min/kg; in series [13] it was 34 mL/min/kg. The same molecule returned a solubility (thermodynamic) in “physchem” of 67 µM (≈ 31.2 µg/mL).

Consider `Cn1ncc(NC(=O)c2nc(-c3c(F)cccc3F)sc2N)c1[C@@]12CC[C@@H](N)[C@@H](CC1)O2`, for which, in the series “in vivo [4]”, the bioavailability is 24%. The same molecule had a clearance in the series “in vivo [7]” of 3 mL/min/kg. Further, the thermodynamic solubility in “physchem” stood at 16 µM (≈ 7.37 µg/mL).

`Cn1ncc(NC(=O)c2nc(-c3c(F)cccc3F)sc2N)c1N1CCC[C@H](NCC(F)(F)F)CC1` displayed a thermodynamic solubility in “physchem” of 1 µM (≈ 0.53 µg/mL).

In the series “physchem”, `Cn1ncc(NC(=O)c2nc(-c3c(F)cccc3F)sc2N)c1N1CCC[C@H](NCC(F)F)CC1` yielded a thermodynamic solubility of 1 µM (≈ 0.512 µg/mL).

`CO[C@H]1C[C@H](N)CCN(c2c(NC(=O)c3nc(-c4c(F)cccc4F)sc3N)cnn2C)C1` yielded a bioavailability in the series “in vivo [4]” of 3%. Moreover, the clearance in “in vivo [7]” was found to be 2 mL/min/kg. The same molecule came in with a thermodynamic solubility in the series “physchem” of 62 µM (≈ 29.6 µg/mL).

Consider `Cn1ncc(NC(=O)c2nc(-c3c(F)cccc3F)sc2N)c1C1CCC(N)C(F)CC1` (stereo not drawn), for which the solubility (thermodynamic) in “physchem” stood at 88 µM (≈ 40.9 µg/mL).

`Cn1ncc(NC(=O)c2nc(-c3c(F)cccc3F)sc2N)c1N1CCCC(O)CC1` (stereo not drawn) gave a bioavailability in “in vivo [4]” of 38%. Besides, the clearance in “in vivo [7]” is 7 mL/min/kg. In “physchem”, the solubility (thermodynamic) is less than 1 µM.
